Source: PubChem BioAssay (NCI)
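96-well plates; 48 h exposure; 5 concentrations. Endpoints by linear interpolation between flanking doses. Not reached: highest tested concentration assigned. TGI denotes the concentration required for complete inhibition of growth.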

Key:
Assay in all cases: NCI anticancer screen, dose series, 48 h
786-0 renal = tested on: 786-0 renal
A498 renal = tested on: A498 renal
A549 NSCLC = tested on: A549 NSCLC
ACHN renal = tested on: ACHN renal
BT-549 breast = tested on: BT-549 breast
CAKI-1 renal = tested on: CAKI-1 renal
CCRF-CEM leukemia = tested on: CCRF-CEM leukemia
COLO 205 colon = tested on: COLO 205 colon
DU-145 prostate = tested on: DU-145 prostate
HCT-116 colon = tested on: HCT-116 colon
HCT-15 colon = tested on: HCT-15 colon
HL-60(TB) leukemia = tested on: HL-60(TB) leukemia
HOP-62 NSCLC = tested on: HOP-62 NSCLC
HOP-92 NSCLC = tested on: HOP-92 NSCLC
HS 578T breast = tested on: HS 578T breast
HT29 colon = tested on: HT29 colon
IGROV1 ovarian = tested on: IGROV1 ovarian
K-562 leukemia = tested on: K-562 leukemia
KM12 colon = tested on: KM12 colon
LOX IMVI melanoma = tested on: LOX IMVI melanoma
M14 melanoma = tested on: M14 melanoma
MALME-3M melanoma = tested on: MALME-3M melanoma
MCF7 breast = tested on: MCF7 breast
MDA-MB-231 breast = tested on: MDA-MB-231 breast
MDA-MB-435 = tested on: MDA-MB-435
MDA-N = tested on: MDA-N
MOLT-4 leukemia = tested on: MOLT-4 leukemia
NCI-H226 lung = tested on: NCI-H226 lung
NCI-H23 lung = tested on: NCI-H23 lung
NCI-H460 lung = tested on: NCI-H460 lung
NCI-H522 lung = tested on: NCI-H522 lung
NCI/ADR-RES ovarian = tested on: NCI/ADR-RES ovarian
OVCAR-3 ovarian = tested on: OVCAR-3 ovarian
OVCAR-4 ovarian = tested on: OVCAR-4 ovarian
OVCAR-5 ovarian = tested on: OVCAR-5 ovarian
OVCAR-8 ovarian = tested on: OVCAR-8 ovarian
PC-3 prostate = tested on: PC-3 prostate
RPMI-8226 leukemia = tested on: RPMI-8226 leukemia
RXF 393 renal = tested on: RXF 393 renal
SF-268 CNS = tested on: SF-268 CNS
SF-295 CNS = tested on: SF-295 CNS
SK-MEL-2 melanoma = tested on: SK-MEL-2 melanoma
SK-MEL-28 melanoma = tested on: SK-MEL-28 melanoma
SK-MEL-5 melanoma = tested on: SK-MEL-5 melanoma
SN12C renal = tested on: SN12C renal
SNB-19 CNS = tested on: SNB-19 CNS
SW-620 colon = tested on: SW-620 colon
T-47D breast = tested on: T-47D breast
TK-10 renal = tested on: TK-10 renal
U251 CNS = tested on: U251 CNS
UACC-257 melanoma = tested on: UACC-257 melanoma
UACC-62 melanoma = tested on: UACC-62 melanoma
UO-31 renal = tested on: UO-31 renal
EKVX NSCLC = tested on: EKVX NSCLC
HCC-2998 colon = tested on: HCC-2998 colon
SF-539 CNS = tested on: SF-539 CNS
SK-OV-3 ovarian = tested on: SK-OV-3 ovarian
SNB-75 CNS = tested on: SNB-75 CNS
SR leukemia = tested on: SR leukemia

Measured: TGI

O=C1NC(=O)C(C(c2ccc([N+](=O)[O-])cc2)C2C(=O)NC(=O)NC2=O)C(=O)N1
not listed: EKVX NSCLC | HCC-2998 colon | SF-539 CNS | SK-OV-3 ovarian | SNB-75 CNS | SR leukemia
> 100 µM: all other assays above

COc1ccc(C(=O)CCN(C)C)c2ccccc12
49.1 µM: SN12C renal
37 µM: HL-60(TB) leukemia
> 58.7 µM: UACC-257 melanoma
> 88.8 µM: A498 renal
40.5 µM: OVCAR-8 ovarian
40.2 µM: IGROV1 ovarian
48.7 µM: HCT-15 colon
33.1 µM: SF-539 CNS
> 78.3 µM: HOP-62 NSCLC
39.2 µM: SK-MEL-2 melanoma
42.8 µM: LOX IMVI melanoma
49.5 µM: T-47D breast
61.5 µM: SNB-75 CNS
33.2 µM: MCF7 breast
36.6 µM: COLO 205 colon
35.6 µM: MDA-MB-231 breast
11.8 µM: CCRF-CEM leukemia
36.9 µM: OVCAR-3 ovarian
27.4 µM: 786-0 renal
41.9 µM: HOP-92 NSCLC | RXF 393 renal
50.5 µM: MDA-N
60.3 µM: SK-MEL-28 melanoma
4.44 µM: RPMI-8226 leukemia
98.3 µM: M14 melanoma
46 µM: MOLT-4 leukemia
36 µM: HCC-2998 colon
65.1 µM: OVCAR-4 ovarian
44.2 µM: UO-31 renal
> 63.7 µM: KM12 colon
49.3 µM: SW-620 colon
37.6 µM: BT-549 breast
55.8 µM: EKVX NSCLC
34 µM: ACHN renal | PC-3 prostate
> 96.5 µM: OVCAR-5 ovarian
21.9 µM: NCI-H522 lung
> 54.4 µM: TK-10 renal
> 62 µM: DU-145 prostate
52.5 µM: HCT-116 colon
17.4 µM: CAKI-1 renal
60 µM: K-562 leukemia
34.4 µM: MALME-3M melanoma
55.4 µM: SF-268 CNS
35.1 µM: U251 CNS
51.4 µM: NCI-H23 lung
66.7 µM: HT29 colon
57 µM: HS 578T breast
> 58.1 µM: UACC-62 melanoma
48.1 µM: MDA-MB-435
not listed: SR leukemia
> 100 µM: all other assays above

COc1cc(NC(C)=O)ccc1C(=O)N/N=C/c1ccco1
not listed: MDA-MB-231 breast | NCI-H226 lung | NCI-H460 lung | TK-10 renal | U251 CNS | UACC-257 melanoma | HCC-2998 colon
> 100 µM: all other assays above

CC1(O)C2(c3ccccc3)CCC[N+]1(C)CC2 (centres undefined)
not listed: 786-0 renal | A549 NSCLC | ACHN renal | NCI-H522 lung | SF-268 CNS | EKVX NSCLC | SF-539 CNS | SR leukemia
> 100 µM: all other assays above
